Results published in patent publication US8076285B2, “Lysobactin amides” (Aicuris GmbH & Co. KG, priority 2006, dated 2011).
Converted amounts (≈) assume the structure as drawn. Like-named read-outs stand apart in the source and are kept apart here. *1 amine or outer side, *2 acyl side, *3 side chain or, on linkers, in order; H or OH if unused. Where a SMILES comes first, the peptide text is derived from it. Bridges are numbered along the chain shown (N, C = ends). [ ]: non-standard residue; d: D form. ξ: configuration not given here. Phe(3R-OH) = O=C([C@@H](N[*:1])[C@H](O[*:3])c1ccccc1)[*:2]; Phe(βR-NH) = O=C([C@@H](N[*:1])[C@H](N[*:3])c1ccccc1)[*:2]; Asn(3S-OH) = NC(=O)[C@@H](O)[C@H](N)C(=O)O; Leu(3R-OH) = CC(C)[C@@H](O)[C@H](N)C(=O)O; X1 = NC(=O)[C@@H](O)C(N[*:1])C(=O)[*:2]; dAla(TMS) = C[Si](C)(C)C[C@@H](N)C(=O)O; d(tBuAla) = CC(C)(C)C[C@@H](N)C(=O)O; tBuAla = CC(C)(C)C[C@H](N)C(=O)O; 3Pal = N[C@@H](Cc1cccnc1)C(=O)O; aThr = C[C@H](O)[C@H](N)C(=O)O; ξIle = CC[C@H](C)C(N)C(=O)O; Nle = CCCC[C@H](N)C(=O)O; ξS = NC(CO)C(=O)O; ξA = CC(N)C(=O)O

Assays:
[1] = amide bond; 28-membered ring; HATU/NMM; DMF; 0.0 °C
[2] = tested on: Enterococcus faecalis 27159; format: cell-based
Experimental: (§1) Determination of the Minimum Inhibitory Concentration (MIC):
(§2) The MIC is determined in the liquid dilution test in accordance with the NCCLS guidelines. Overnight cultures of Staphylococcus aureus 133, Enterococcus faecalis 27159, E. faecium 4147 and Streptococcus pneumoniae G9a are incubated with the described test substances in a 1:2 dilution series. The MIC determination is carried out with a cell count of 10^5 microbes per ml in Isosensitest medium (Difco, Irvine/USA), with the exception of S. pneumoniae which is tested in BHI broth (Difco, Irvine/USA) with 10% bovine serum with a cell count of 10^6 microbes per ml. The cultures are incubated at 37° C. for 18-24 hours, S. pneumoniae in the presence of 10% CO2.
(§3) The MIC is defined as the lowest concentration of each substance at which no visible bacterial growth occurs any longer. The MIC values are reported in μg/ml.

[3] = tested on: Staphylococcus aureus 133; format: cell-based
Experimental: as §1, §2, §3

[4] = tested on: Streptococcus pneumoniae G9a; format: cell-based
Experimental: as §1, §2, §3

[5] = Chemical stability in alkaline aqueous solution (buffer pH 7.8, HPLC); format: physicochemical; conditions: aqueous neutral to basic medium (pH>7)
Experimental: Determination of the Chemical Stability in Stability Alkaline Aqueous Solution:
0.3 mg of the test substance are dissolved in a mixture of 0.25 ml of acetonitrile, 0.25 ml of DMSO and 0.5 ml of buffer of pH 7.8 (consisting of 111 mg (1 mmol) of calcium chloride, 7.91 g (100 mmol) of ammonium bicarbonate, 100 ml of acetonitrile ad 1000 ml) and left to stand at room temperature. A 5 μl aliquot is taken from the solution once an hour and analyzed by HPLC (method 57). The concentration of the test compound at time 0 h, indicated by the UV absorption (1E), is set equal to 100%, and the decrease over time is observed. At the same time, the increase in the ring-opened degradation product is observed.

[6] = amide bond, 28-membered ring, HATU/NMM, DMF
[7] = Isosensitest medium, 10^5 microbes per ml, 37° C., 18-24 hours

Molecule | MIC E. faecalis ICB 27159 [2]; 27159 [mg/L] | MIC S. aureus 133 [3]; 133 [mg/L] | MIC S. pneumoniae G9a ([4]; G9a) [mg/L] | further results
[(3R)-N^2-(Benzyloxycarbonyl)-3-amino-L-phenylalanyl]-[(3R)-3-hydroxy-L-leucyl]-L-leucyl-D-arginyl-L-isoleucyl-L-allothreonyl-glycyl-L-allothreonyl-L-aserinate C^1.9-N^3.1-lactam trifluoroacetate | – | – | – | ring closure, crude yield [1]: 86%
CC[C@H](C)[C@@H]1NC(=O)[C@@H](CCCNC(=N)N)NC(=O)[C@H](CC(C)C)NC(=O)[C@H]([C@H](O)C(C)C)NC(=O)[C@@H](NC(=O)[C@H](CC(C)(C)C)NC(=O)[C@H](N)CC(C)(C)C)[C@@H](c2ccccc2)NC(=O)[C@H](CO)NC(=O)C(C)NC(=O)CNC(=O)[C@H]([C@H](C)O)NC1=O (stereo partly drawn) [Example 13, [3-tert-Butyl-D-alanyl]-[3-tert-butyl-L-alanyl]-[(3R)-3-amino-L-phenylalanyl]-[(3R)-3-hydroxy-L-leucyl]-L-leucyl-D-arginyl-L-isoleucyl-L-allothreonyl-glycyl-L-alanyl-L-serine C^1.11-N^3.3-lactam bistrifluoroacetate] (H-[d(tBuAla)][tBuAla][Phe(βR-NH)][Leu(3R-OH)]L[dR]I[aThr]G[ξA]S; lactam 3-C) | 0.5 (≈ 0.402 µM) | 0.25 (≈ 0.201 µM) | 0.5 (≈ 0.402 µM) | –
CCCC[C@@H]1NC(=O)[C@H]([C@H](O)C(C)C)NC(=O)[C@@H](NC(=O)[C@H](Cc2cccnc2)NC(=O)[C@H](N)C[Si](C)(C)C)[C@@H](c2ccccc2)NC(=O)C(CO)NC(=O)[C@H](C)NC(=O)CNC(=O)[C@H]([C@H](C)O)NC(=O)[C@H]([C@@H](C)CC)NC(=O)[C@@H](CCCNC(=N)N)NC1=O (stereo partly drawn) [Example 41, [3-Trimethylsilyl-D-alanyl]-[3-(3-pyridyl)-L-alanyl]-[(3R)-3-amino-L-phenylalanyl]-[(3R)-3-hydroxy-L-leucyl]-L-norleucyl-D-arginyl-L-isoleucyl-L-allothreonyl-glycyl-L-alanyl-L-serine C^1.11-N^3.3-lactam tristrifluoroacetate] (H-[dAla(TMS)][3Pal][Phe(βR-NH)][Leu(3R-OH)][Nle][dR]I[aThr]GA[ξS]; lactam 3-C) | – | – | – | MIC E. faecalis ICB 27159 [2, 7]: 2 mg/L (≈ 1.56 µM); MIC S. aureus 133 [3, 7]: 0.25 mg/L (≈ 0.195 µM); MIC S. pneumoniae G9a ([4]; BHI broth with 10% bovine serum, 10^6 microbes per ml, 37° C., 18-24 hours, 10% CO2): 0.25 mg/L (≈ 0.195 µM)
CC[C@H](C)[C@@H]1NC(=O)[C@@H](CCCNC(=N)N)NC(=O)[C@H](CC(C)C)NC(=O)[C@H]([C@H](O)C(C)C)NC(=O)[C@@H](NC(=O)[C@H](CC(C)(C)C)NC(=O)[C@H](N)CC(C)(C)C)[C@@H](c2ccccc2)NC(=O)[C@H](CO)NC(=O)C([C@H](O)C(N)=O)NC(=O)CNC(=O)[C@H](CO)NC1=O (stereo partly drawn) [Example 14, [3-tert-Butyl-D-alanyl]-[3-tert-butyl-L-alanyl]-[(3R)-3-amino-L-phenylalanyl]-[(3R)-3-hydroxy-L-leucyl]-L-leucyl-D-arginyl-L-isoleucyl-L-seryl-glycyl-[(3S)-3-hydroxy-L-asparaginyl]-L-serine C^1.11-N^3.3-lactam bistrifluoroacetate] (H-[d(tBuAla)][tBuAla][Phe(βR-NH)][Leu(3R-OH)]L[dR]ISG[X1]S; lactam 3-C) | 0.5 (≈ 0.388 µM) | 0.25 (≈ 0.194 µM) | 0.125 (≈ 0.0969 µM) | –
CC[C@H](C)[C@@H]1NC(=O)[C@@H](CCCNC(=N)N)NC(=O)[C@H](CC(C)C)NC(=O)[C@H]([C@H](O)C(C)C)NC(=O)[C@@H](NC(=O)OCc2ccccc2)[C@@H](c2ccccc2)NC(=O)[C@H](CO)NC(=O)[C@H]([C@@H](C)O)NC(=O)CNC(=O)[C@H]([C@H](C)O)NC1=O | – | – | – | ring closure, yield after HPLC ([6]; from Z-Phe((3R)-3-NH2)-Leu((3R)-3-OH)-Leu-dArg-Ile-aThr-Gly-Thr-Ser-OH?, 0.0 °C): 65%
CC[C@H](C)[C@@H]1NC(=O)[C@@H](CCCN(C(=N)NC(=O)OCc2ccccc2)C(=O)OCc2ccccc2)NC(=O)[C@H](CC(C)C)NC(=O)[C@H]([C@H](O)C(C)C)NC(=O)[C@@H](NC(=O)[C@H](CC(C)(C)C)NC(=O)[C@@H](CC(C)(C)C)NC(=O)OCc2ccccc2)[C@@H](c2ccccc2)NC(=O)[C@H](CO)NC(=O)[C@H](CC(N)=O)NC(=O)CNC(=O)[C@H]([C@H](C)O)NC1=O | – | – | – | ring closure, yield after HPLC ([6]; from Z-dAla(3-tBu)-Ala(3-tBu)-(3R)3-amino-Phe(free 3-NH2)-(3R)3-OH-Leu-Leu-dArg(Z)2-Ile-aThr-Gly-Asn-Ser-OH, 1.1 mM, 25.0 °C): 90.1%
CC[C@H](C)[C@@H]1NC(=O)[C@@H](CCCNC(=N)N)NC(=O)[C@H](CC(C)C)NC(=O)[C@H]([C@H](O)C(C)C)NC(=O)[C@@H](NC(=O)[C@H](CC(C)(C)C)NC(=O)[C@H](N)CC(C)(C)C)[C@@H](c2ccccc2)NC(=O)C(CO)NC(=O)[C@H](CO)NC(=O)CNC(=O)[C@H](CO)NC1=O (stereo partly drawn) [Example 23, [3-tert-Butyl-D-alanyl]-[3-tert-butyl-L-alanyl]-[(3R)-3-amino-L-phenylalanyl]-[(3R)-3-hydroxy-L-leucyl]-L-leucyl-D-arginyl-L-isoleucyl-L-seryl-glycyl-L-seryl-L-serine C^1.11-N^3.3-lactam bistrifluoroacetate] (H-[d(tBuAla)][tBuAla][Phe(βR-NH)][Leu(3R-OH)]L[dR]ISGS[ξS]; lactam 3-C) | 1 (≈ 0.802 µM) | 0.5 (≈ 0.401 µM) | 0.25 (≈ 0.201 µM) | –

Now from value to molecule, other results behind:

MIC E. faecalis ICB 27159 [2]; 27159 [mg/L] | MIC S. aureus 133 [3]; 133 [mg/L] | MIC S. pneumoniae G9a ([4]; G9a) [mg/L] | Molecule | further results
0.5 (≈ 0.392 µM) | 0.5 (≈ 0.392 µM) | 0.063 (≈ 0.0494 µM) | CC[C@H](C)[C@@H]1NC(=O)[C@@H](CCCNC(=N)N)NC(=O)[C@H](CC(C)C)NC(=O)[C@H]([C@H](O)C(C)C)NC(=O)[C@@H](NC(=O)[C@H](CC(C)C)NC(=O)[C@H](N)CC(C)C)[C@@H](c2ccccc2)OC(=O)[C@H](CO)NC(=O)[C@H]([C@H](O)C(N)=O)NC(=O)CNC(=O)[C@H]([C@H](C)O)NC1=O [Lysobactin, lysobactin] (H-[dL]L[Phe(3R-OH)][Leu(3R-OH)]L[dR]I[aThr]G[Asn(3S-OH)]S; ester 3-C (inferred); N-terminus assumed) | hydrolysis (opening of the lactone) in aqueous medium [5]: hydrolyzed in an aqueous neutral to basic medium (pH>7) within days
0.5 (≈ 0.383 µM) | 0.25 (≈ 0.192 µM) | 0.125 (≈ 0.0958 µM) | CC[C@H](C)[C@@H]1NC(=O)[C@@H](CCCNC(=N)N)NC(=O)[C@H](CC(C)C)NC(=O)[C@H]([C@H](O)C(C)C)NC(=O)[C@@H](NC(=O)[C@H](CC(C)(C)C)NC(=O)[C@H](N)CC(C)(C)C)[C@@H](c2cccnc2)NC(=O)C(CO)NC(=O)C([C@H](O)C(N)=O)NC(=O)CNC(=O)[C@H]([C@H](C)O)NC1=O (stereo partly drawn) [Example 44, [3-tert-Butyl-D-alanyl]-[3-tert-butyl-L-alanyl]-[(3R)-3-amino-3-(pyridin-3-yl)-L-alanyl]-[(3R)-3-hydroxy-L-leucyl]-L-leucyl-D-arginyl-L-isoleucyl-L-allothreonyl-glycyl-[(3S)-3-hydroxy-L-asparaginyl]-L-serine C^1.11-N^3.3-lactam tristrifluoroacetate] | –
1 (≈ 0.793 µM) | 0.25 (≈ 0.198 µM) | 0.5 (≈ 0.397 µM) | CC[C@H](C)C1NC(=O)[C@H]([C@H](O)C(C)C)NC(=O)[C@@H](NC(=O)[C@H](CC(C)(C)C)NC(=O)[C@H](N)CC(C)(C)C)[C@@H](c2ccccc2)NC(=O)C(CO)NC(=O)[C@H](CO)NC(=O)CNC(=O)[C@H]([C@H](C)O)NC(=O)[C@H]([C@@H](C)CC)NC(=O)[C@@H](CCCNC(=N)N)NC1=O (stereo partly drawn) [Example 35, [3-tert-Butyl-D-alanyl]-[3-tert-butyl-L-alanyl]-[(3R)-3-amino-L-phenylalanyl]-[(3R)-3-hydroxy-L-leucyl]-L-isoleucyl-D-arginyl-L-isoleucyl-L-allothreonyl-glycyl-L-seryl-L-serine C^1.11-N^3.3-lactam bistrifluoroacetate] (H-[d(tBuAla)][tBuAla][Phe(βR-NH)][Leu(3R-OH)][ξIle][dR]I[aThr]GS[ξS]; lactam 3-C) | –
